Data published in publication PMC8623647 (Pharmaceuticals, 2021).
Values joined by “and” are separate entries in the source; they are usually repeats but may differ in a detail not shown here. Equal entries are not always repeated. “Also recorded” adds a separate entry of the source. Where two headings read alike, the source gives them in different places.

Key:
recombinant human MAO-A = target: T1, recombinant human MAO-A (Homo sapiens, UniProt P21397); test: MAO-A enzyme inhibition (kynuramine substrate, 316 nm); conditions: for remaining activity at 10 µM: read-out: Residual Activity at 10 µM (%) MAO-A
T1 sequence (P21397 1-527): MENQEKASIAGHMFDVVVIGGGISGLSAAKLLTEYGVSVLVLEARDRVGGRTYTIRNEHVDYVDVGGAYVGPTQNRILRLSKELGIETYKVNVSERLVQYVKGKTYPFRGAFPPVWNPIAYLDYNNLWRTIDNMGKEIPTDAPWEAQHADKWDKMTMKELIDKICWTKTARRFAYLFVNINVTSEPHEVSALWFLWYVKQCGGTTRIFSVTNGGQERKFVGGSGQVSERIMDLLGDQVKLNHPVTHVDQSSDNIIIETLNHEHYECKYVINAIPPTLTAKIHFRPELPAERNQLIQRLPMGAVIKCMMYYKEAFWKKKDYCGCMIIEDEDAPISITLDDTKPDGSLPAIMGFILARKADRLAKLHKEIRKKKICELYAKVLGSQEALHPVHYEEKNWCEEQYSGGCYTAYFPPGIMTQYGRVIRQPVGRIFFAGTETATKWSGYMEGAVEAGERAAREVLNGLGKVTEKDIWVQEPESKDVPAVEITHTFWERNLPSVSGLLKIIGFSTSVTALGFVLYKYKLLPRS
Method: (§4) MAO activity assays were performed using recombinant human MAO-A or MAO-B.
(§5) IC50 values were determined by measuring residual enzyme activities.

MAO-B [1] = target: T2, MAO-B (Homo sapiens, UniProt P27338); test: MAO-B enzyme inhibition (benzylamine substrate, 250 nm); conditions: for SI (hMAO-B selectivity index): IC50(hMAO-A) divided by IC50(hMAO-B); for remaining activity at 10 µM: read-out: Residual Activity at 10 µM (%) MAO-B; for Times more potent than pargyline (MAO-B) / Times more potent than the reference drug lazabemide (MAO-B): ratio of MAO-B IC50 values
T2 sequence (P27338 1-520): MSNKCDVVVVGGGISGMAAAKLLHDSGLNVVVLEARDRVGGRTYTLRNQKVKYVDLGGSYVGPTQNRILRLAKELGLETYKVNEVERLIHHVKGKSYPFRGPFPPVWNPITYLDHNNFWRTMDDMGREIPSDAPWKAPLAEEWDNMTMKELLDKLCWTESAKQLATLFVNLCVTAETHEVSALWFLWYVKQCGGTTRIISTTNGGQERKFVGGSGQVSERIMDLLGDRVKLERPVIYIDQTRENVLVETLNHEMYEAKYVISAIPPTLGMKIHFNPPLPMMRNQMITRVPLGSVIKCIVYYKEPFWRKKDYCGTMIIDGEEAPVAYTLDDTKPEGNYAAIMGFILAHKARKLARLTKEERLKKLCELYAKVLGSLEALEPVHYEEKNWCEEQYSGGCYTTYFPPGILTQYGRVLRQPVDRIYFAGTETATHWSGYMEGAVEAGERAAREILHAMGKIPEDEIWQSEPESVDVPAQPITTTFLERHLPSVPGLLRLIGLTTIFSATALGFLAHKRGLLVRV
Method: as §4, §5

[2] = BBB permeation by parallel artificial membrane permeability assay (PAMPA); format: in vitro ADME; conditions: for Blood-brain barrier permeability in words: PAMPA; for Prediction (BBB permeation): PAMPA-BBB class from Pe; for Papp: read-out: Experimental Pe
Description: The CNS bioavailability of the lead candidates was further ascertained by PAMPA method [31].

MAO-B [3] = target: T2, MAO-B; test: Reversibility of MAO-B inhibition by dialysis; format: biochemical; conditions: for MAO-B activity of dialyzed sample (AD): after dialysis; for MAO-B activity of dialyzed sample (AD) / MAO-B activity of undialyzed sample (AU): test compounds […], lazabemide 0.20 µM, pargyline 0.30 µM; for Reversibility of MAO-B inhibition: dialysis-based method; for MAO-B activity of undialyzed sample (AU): preincubated 30 min
Method: The reversibilities of MAO-B inhibitions by TM1 and TM8 were assessed by dialysis. […] Reversibility patterns were determined by comparing the activities of dialyzed (AD) and undialyzed (AU) samples.

Vero cells [4] = test: Cytotoxicity by MTT assay; format: cell-based, African Green Monkey; conditions: 48 h, MTT assay; for IC50: Chlorocebus sabaeus, Vero, read-out: IC50 for Vero cell viability; for Concentrations resulting in high viability (>90%): Vero cells
Method: (§1) African Green Monkey kidney cells (VERO cells) were used to evaluate the cytotoxic effects of TM1 and TM8. Cells were incubated with different doses (1 µg/mL to 500 µg/mL) of the two compounds for 48 h, and relative cell viabilities were determined by MTT assay.
(§2) The cytotoxicities and ROS quenching abilities of the two lead compounds (TM1 and TM8) were evaluated as previously described.
(§3) Figure 4 Effect of TM1 on Vero cell viability. (a) cell viability treated with TM1; (b) dose-response curve; (c) phase contrast microscope images of Vero cells treated with different concentrations of TM1. Cells were treated with TM1 for 48 h and cell viabilities were assessed by MTT assay as described in Section 4.
as §3, with “Figure 5” for “Figure 4”, “of TM8” for “of TM1”, “with TM8;” for “with TM1;”, “of TM8.” for “of TM1.”, “with TM8” for “with TM1”

[5] = Cytotoxicity by MTT assay; format: cell-based, African Green Monkey; conditions: African green monkey, Vero cells (kidney); Vero cells treated at effective concentrations; read-out: Cells remaining viable
Method: as §1, §2, §3
as §3, with “Figure 5” for “Figure 4”, “of TM8” for “of TM1”, “with TM8;” for “with TM1;”, “of TM8.” for “of TM1.”, “with TM8” for “with TM1”

Vero cells [6] = test: ROS assay (H2O2-induced ROS levels); format: cell-based, African Green Monkey; conditions: compound at its IC50 value, exogenous H2O2
Method: ROS increase vulnerability to neuronal damage by causing oxidative damage in the brain during neurodegenerative diseases.
as §2
Figure 6 Effects of TM1 (a) and TM8 (b) on H2O2-induced ROS levels. Vero cells (1 × 10^6 cells/mL) were pre-incubated with 100 μg/mL of 30% H2O2 and ROS production was evaluated immediately as described in Section 4.

[7] = design: method as in PMID 12667689; conditions: PAMPA-BBB ref 31; cited from earlier work
MAO-B [8] = target: MAO-B; design: method as in PMID 28577983; conditions: methoxylated chalcones previously reported ref 30; cited from earlier work
MAO-B [9] = target: T2, MAO-B; test: Kinetics study of MAO-B inhibition (Lineweaver-Burk and secondary plots); format: biochemical
Method: Kinetic studies on MAO-B inhibitions were performed on TM1 and TM8.

SMILES | IC50 (recombinant human MAO-A) [µM] | remaining activity at 10 µM (recombinant human MAO-A) [%] | IC50 (MAO-B [1]) [µM] | SI (hMAO-B selectivity index) (MAO-B [1]) | remaining activity at 10 µM (MAO-B [1]) [%] | Prediction (BBB permeation) [2] | Papp ([2]; PAMPA-BBB) [nm/s] | Times more potent than the reference drug lazabemide (MAO-B) (MAO-B [1]) [times] | other results
CSc1ccc(C(=O)/C=C/c2ccc(N(C)C)cc2)cc1 [TM5] | 5.91 ± 0.87 | 47.9 ± 3.7 | 0.12 ± 0.011 | 49.3 | 1.6 ± 1.1 | – | – | – | –
CCc1ccc(/C=C/C(=O)c2ccc(SC)cc2)cc1 [TM6] | 6.71 ± 0.75 | 49.4 ± 8.7 | 0.13 ± 0.005 | 51.6 | -9.5 | – | – | – | –
CSc1ccc(C(=O)/C=C/c2ccc(Cl)cc2)cc1 [TM8] | 48.6 ± 3.44 | 77.4 ± 8.2 | 0.01 ± 0.005 | – | 4.1 ± 0.5 | CNS+ (CNS+ (high BBB permeation predicted): Pe (10^−6 cm·s^−1) > 4.00) | 163 ± 2.6 | 6.3 | Blood-brain barrier permeability in words [2]: high blood-brain barrier permeabilities; MAO-B activity of dialyzed sample (AD) (MAO-B [3]): 69.3%; Reversibility of MAO-B inhibition (MAO-B [3]): reversible MAO-B inhibitors; MAO-B activity of undialyzed sample (AU) (MAO-B [3]): 33.1%; IC50 (Vero cells [4]; converted from µg/mL): 402 µM; IC50 (Vero cells [4]): 116 mg/L; viability at 48 h [5]: > 90%; Effect on H2O2-induced intracellular ROS levels (Vero cells [6]): significantly reduced reactive oxygen species (ROS) levels; also recorded: appreciably lower ROS levels; also recorded: mitigated H2O2-induced increases in ROS levels; Times more potent than pargyline (MAO-B) (MAO-B [1]): 2.8 times
CN1C(C(=O)Nc2ccccn2)=C(O)c2ccccc2S1(=O)=O [Piroxicam, reference compound] | – | – | – | – | – | CNS± (CNS± (BBB permeation uncertain): Pe (10^−6 cm·s^−1) from 2.00 to 4.00) | – | – | Bibliography Pe [7]: 25 nm/s; Experimental Pe ([2]; PAMPA-BBB): 2.44 ± 0.26 ×10^−6 cm·s^−1
CSc1ccc(C(=O)/C=C/c2ccc(Br)cc2)cc1 [TM9] | 33.6 ± 2.56 | 74.7 | 0.088 ± 0.006 | 381.8 | 7.5 ± 2.1 | – | – | – | –
COc1ccc(C(=O)/C=C/c2ccccc2)cc1 [Compound C1] | – | – | – | – | – | – | – | – | Ki (MAO-B [8]): 0.7 ± 0.05 µM; SI for MAO-B (MAO-B [8]): 5.07
CSc1ccc(C(=O)/C=C/c2ccc(C)cc2)cc1 [TM4] | 12 ± 0.99 | 71.6 ± 3.8 | 0.058 ± 0.001 | 206.9 | 14.7 ± 2.8 | – | – | 1.1 | –
CSc1ccc(C(=O)/C=C/c2ccccc2)cc1 [TM1] | 13.8 ± 0.05 | 62.6 ± 9.7 | 0.017 ± 0.003 | 812 and 811.8 | 13.2 ± 0.7 | CNS+ (CNS+ (high BBB permeation predicted): Pe (10^−6 cm·s^−1) > 4.00) | 155 ± 3.3 | 3.7 | Inhibitor type for MAO-B (MAO-B [9]; Lineweaver-Burk plots): competitively inhibited MAO-B; also recorded: competitive; Ki (MAO-B [9]; from secondary plots of slopes vs. inhibitor concentrations): 0.011 ± 0.001 µM; Blood-brain barrier permeability in words [2]: high blood-brain barrier permeabilities; MAO-B activity of dialyzed sample (AD) (MAO-B [3]): 68.1%; Reversibility of MAO-B inhibition (MAO-B [3]): reversible MAO-B inhibitors; MAO-B activity of undialyzed sample (AU) (MAO-B [3]): 24.9%; IC50 (Vero cells [4]; converted from µg/mL): 948 µM; IC50 (Vero cells [4]): 242 mg/L; Concentrations resulting in high viability (>90%) (Vero cells [4]): < 250 µg/mL; Concentrations resulting in high viability (>90%) (Vero cells [4]; converted from µg/mL): < 983.1 µM; viability at 48 h [5]: > 90%; Effect on H2O2-induced intracellular ROS levels (Vero cells [6]): significantly reduced reactive oxygen species (ROS) levels; also recorded: appreciably lower ROS levels; also recorded: mitigated H2O2-induced increases in ROS levels; Times more potent than pargyline (MAO-B) (MAO-B [1]): 1.6 times
NCCc1ccc(O)c(O)c1 [Dopamine, reference compound] | – | – | – | – | – | CNS− (CNS− (low BBB permeation predicted): Pe (10^−6 cm·s^−1) < 2.00) | – | – | Bibliography Pe [7]: 2 nm/s
CCn1cc(C(=O)O)c(=O)c2cc(F)c(N3CCNC(C)C3)c(F)c21 (stereo not drawn) [Lomefloxacin, reference compound] | – | – | – | – | – | CNS− (CNS− (low BBB permeation predicted): Pe (10^−6 cm·s^−1) < 2.00) | 12.2 ± 0.2 | – | –
COc1ccc(C(=O)/C=C/c2ccc(Cl)cc2)cc1 [Compound C8] | – | – | – | – | – | – | – | – | SI for MAO-B (MAO-B [8]): 3.89
CSc1ccc(C(=O)/C=C/c2ccc(F)cc2)cc1 [TM10] | 13.7 ± 1.22 | 57.9 ± 6 | 0.026 ± 0.004 | 526.9 | -0.4 ± 2.7 | CNS+ (CNS+ (high BBB permeation predicted): Pe (10^−6 cm·s^−1) > 4.00) | 152 ± 4.4 | 2.4 | Times more potent than pargyline (MAO-B) (MAO-B [1]): almost as potent as pargyline
CC(=O)[C@H]1CC[C@H]2[C@@H]3CCC4=CC(=O)CC[C@]4(C)[C@H]3CC[C@]12C [Progesterone, reference compound] | – | – | – | – | – | CNS+ (CNS+ (high BBB permeation predicted): Pe (10^−6 cm·s^−1) > 4.00) | – | – | –
NCCNC(=O)c1ccc(Cl)cn1 [Lazabemide, reference compound] | – | – | – | – | – | – | – | – | MAO-B activity of dialyzed sample (AD) (MAO-B [3]): 74.9%; MAO-B activity of undialyzed sample (AU) (MAO-B [3]): 16.6%
CSc1ccc(C(=O)/C=C/c2ccc(C(F)(F)F)cc2)cc1 [TM11] | 25.2 ± 0.14 | 79.5 ± 0.7 | 0.081 ± 0.032 | 311.1 | 7.4 ± 1.2 | – | – | – | –
CSc1ccc(C(=O)/C=C/c2ccc(O)cc2)cc1 [TM2] | 7.45 ± 0.25 | 48.3 ± 2.4 | 0.021 ± 0.003 | 354.8 | -5.7 ± 5.3 | CNS+ (CNS+ (high BBB permeation predicted): Pe (10^−6 cm·s^−1) > 4.00) | 133 ± 8 | 3.0 | Times more potent than pargyline (MAO-B) (MAO-B [1]): 1.3 times
CSc1ccc(C(=O)/C=C/c2ccc([N+](=O)[O-])cc2)cc1 [TM7] | 30 ± 3.02 | 66.1 ± 2.6 | 0.023 ± 0.001 | 1304 and 1304.3 | 6 ± 1.9 | CNS+ (CNS+ (high BBB permeation predicted): Pe (10^−6 cm·s^−1) > 4.00) | 155 ± 7.1 | 2.7 | Times more potent than pargyline (MAO-B) (MAO-B [1]): almost as potent as pargyline
COc1ccc(/C=C/C(=O)c2ccc(SC)cc2)cc1 [TM3] | 8.82 ± 0.09 | 44.6 ± 1.9 | 0.088 ± 0.011 | 100.2 | 6.9 | – | – | – | –
